Results: EP2766361B1, “8-CARBAMOYL-2-(2,3-DISUBSTITUTED PYRID-6-YL)-1,2,3,4-TETRAHYDROISOQUINOLINE DERIVATIVES AS APOPTOSIS-INDUCING AGENTS FOR THE TREATMENT OF CANCER AND IMMUNE AND AUTOIMMUNE DISEASES” (priority 2011, dated 2013)

system: mouse FL5.12 cells transfected with Bcl-xL; assay: FL5.12 cellular assay (cell viability, CellTiter-Glo); assay type: cell-based; conditions: IL-3-depleted, 3% FBS assay media, 24 hours, read-out: FL5.12 Bcl-xL, -IL3, EC50
Procedure: Cell viability was assayed using the CellTiter-Glo assay (Promega Corp., Madison, WI) according to the manufacturer instructions. Individual determinations were the result of duplicate values. […] Table 2. In Vitro Data

SMILES	EC50 [nM]
Cc1nn(CC23CC4CC(CC(C4)C2)C3)c(C)c1-c1ccc(N2CCc3cccc(C(=O)Nc4nc5ccccc5s4)c3C2)nc1C(=O)O [Example 2, 6-[8-(1,3-benzothiazol-2-ylcarbamoyl)-3,4-dihydroisoquinolin-2(1H)-yl]-3-[3,5-dimethyl-1-(tricyclo[3.3.1.1^3,7]dec-1-ylmethyl)-1H-pyrazol-4-yl]pyridine-2-carboxylic acid]	< 1
O=C(Nc1nc2ccccc2s1)c1cccc2c1CN(c1ccc(-c3cnn(CC4CCC5(CCC5)CC4)c3)c(C(=O)O)n1)CC2 [Example 4, 6-[8-(1,3-benzothiazol-2-ylcarbamoyl)-3,4-dihydroisoquinolin-2(1H)-yl]-3-[1-(spiro[3.5]non-7-ylmethyl)-1H-pyrazol-4-yl]pyridine-2-carboxylic acid]	918
CC12CC3CC(C)(C1)CC(Cn1cc(-c4ccc(N5CCc6cccc(C(=O)Nc7nc8ccccc8s7)c6C5)nc4C(=O)O)cn1)(C3)C2 [Example 5, 6-[8-(1,3-benzothiazol-2-ylcarbamoyl)-3,4-dihydroisoquinolin-2(1H)-yl]-3-(1-{[3,5-dimethyltricyclo[3.3.1.1^3,7]dec-1-yl]methyl}-1H-pyrazol-4-yl)pyridine-2-carboxylic acid]	2
O=C(Nc1nc2ccccc2s1)c1cccc2c1CN(c1ccc(-c3cnn(CC45CC6CC(CC(O)(C6)C4)C5)c3)c(C(=O)O)n1)CC2 [Example 6, 6-[8-(1,3-benzothiazol-2-ylcarbamoyl)-3,4-dihydroisoquinolin-2(1H)-yl]-3-(1-{[3-hydroxytricyclo[3.3.1.1^3,7]dec-1-yl]methyl}-1H-pyrazol-4-yl)pyridine-2-carboxylic acid]	146
COC12CC3CC(CC(Cn4cc(-c5ccc(N6CCc7cccc(C(=O)Nc8nc9ccccc9s8)c7C6)nc5C(=O)O)cn4)(C3)C1)C2 [Example 7, 6-[8-(1,3-benzothiazol-2-ylcarbamoyl)-3,4-dihydroisoquinolin-2(1H)-yl]-3-(1-{[3-methoxytricyclo[3.3.1.1^3,7]dec-1-yl]methyl}-1H-pyrazol-4-yl)pyridine-2-carboxylic acid]	37
COCCOC12CC3CC(CC(Cn4cc(-c5ccc(N6CCc7cccc(C(=O)Nc8nc9ccccc9s8)c7C6)nc5C(=O)O)cn4)(C3)C1)C2 [Example 8, 6-[8-(1,3-benzothiazol-2-ylcarbamoyl)-3,4-dihydroisoquinolin-2(1H)-yl]-3-(1-{[3-(2-methoxyethoxy)tricyclo[3.3.1.1^3,7]dec-1-yl]methyl}-1H-pyrazol-4-yl)pyridine-2-carboxylic acid]	147
CC12CC3(C)CC(C)(C1)CC(Cn1cc(-c4ccc(N5CCc6cccc(C(=O)Nc7nc8ccccc8s7)c6C5)nc4C(=O)O)cn1)(C2)C3 [Example 9, 6-[8-(1,3-benzothiazol-2-ylcarbamoyl)-3,4-dihydroisoquinolin-2(1H)-yl]-3-{1-[(3,5,7-trimethyltricyclo[3.3.1.1^3,7]dec-1-yl)methyl]-1H-pyrazol-4-yl}pyridine-2-carboxylic acid]	3
O=C(Nc1nc2ccccc2s1)c1cccc2c1CN(c1ccc(-c3cnn(CC45CC6CC(CC(Br)(C6)C4)C5)c3)c(C(=O)O)n1)CC2 [Example 11, 6-[8-(1,3-benzothiazol-2-ylcarbamoyl)-3,4-dihydroisoquinolin-2(1H)-yl]-3-(1-{[3-bromotricyclo[3.3.1.1^3,7]dec-1-yl]methyl}-1H-pyrazol-4-yl)pyridine-2-carboxylic acid]	11
CC(C)OC12CC3CC(CC(Cn4cc(-c5ccc(N6CCc7cccc(C(=O)Nc8nc9ccccc9s8)c7C6)nc5C(=O)O)cn4)(C3)C1)C2 [Example 12, 6-[8-(1,3-benzothiazol-2-ylcarbamoyl)-3,4-dihydroisoquinolin-2(1H)-yl]-3-(1-{[3-(propan-2-yloxy)tricyclo[3.3.1.1^3,7]dec-1-yl]methyl}-1H-pyrazol-4-yl)pyridine-2-carboxylic acid]	24
Cc1c(-c2ccc(N3Cc4c(C(=O)Nc5nc6ccccc6s5)cccc4C(C)(C)C3)nc2C(=O)O)cnn1CC12CC3CC(CC(C3)C1)C2 [Example 14, 6-[8-(1,3-benzothiazol-2-ylcarbamoyl)-4,4-dimethyl-3,4-dihydroisoquinolin-2(1H)-yl]-3-[5-methyl-1-(tricyclo[3.3.1.1^3,^7]dec-1-ylmethyl)-1H-pyrazol-4-yl]pyridine-2-carboxylic acid]	< 1
O=C(Nc1nc2ccccc2s1)c1cccc2c1CN(c1ccc(-c3cnn(CC45CC6CC(C4)CC(N4CCOCC4)(C6)C5)c3)c(C(=O)O)n1)CC2 [Example 15, 6-[8-(1,3-benzothiazol-2-ylcarbamoyl)-3,4-dihydroisoquinolin-2(1H)-yl]-3-(1-{[3-(morpholin-4-yl)tricyclo[3.3.1.1^3,7]dec-1-yl]methyl}-1H-pyrazol-4-yl)pyridine-2-carboxylic acid]	110
Cc1c(-c2ccc(N3CCc4cccc(C(=O)Nc5nc6ccccc6s5)c4C3)nc2C(=O)NS(C)(=O)=O)cnn1CC12CC3CC(CC(C3)C1)C2 [Example 17, N-(1,3-benzothiazol-2-yl)-2-{6-[(methylsulfonyl)carbamoyl]-5-[5-methyl-1-(tricyclo[3.3.1.1^3,7]dec-1-ylmethyl)-1H-pyrazol-4-yl]pyridin-2-yl}-1,2,3,4-tetrahydroisoquinoline-8-carboxamide]	1
Cc1c(-c2ccc(N3CCc4cccc(C(=O)Nc5nc6ccccc6s5)c4C3)nc2-c2nn[nH]n2)cnn1CC12CC3CC(CC(C3)C1)C2 [Example 19, N-(1,3-benzothiazol-2-yl)-2-{5-[5-methyl-1-(tricyclo[3.3.1.1^3,7]dec-1-ylmethyl)-1H-pyrazol-4-yl]-6-(2H-tetrazol-5-yl)pyridin-2-yl}-1,2,3,4-tetrahydroisoquinoline-8-carboxamide]	3
Cc1cc(OCC23CC4CC(CC(C4)C2)C3)ccc1-c1ccc(N2CCc3cccc(C(=O)Nc4nc5ccccc5s4)c3C2)nc1C(=O)O [Example 20, 6-[8-(1,3-benzothiazol-2-ylcarbamoyl)-3,4-dihydroisoquinolin-2(1H)-yl]-3-{2-methyl-4-[tricyclo[3.3.1.1^3,7]dec-1-ylmethoxy]phenyl}pyridine-2-carboxylic acid]	> 1000
Cc1c(OCC23CC4CC(CC(C4)C2)C3)cccc1-c1ccc(N2CCc3cccc(C(=O)Nc4nc5ccccc5s4)c3C2)nc1C(=O)O [Example 21, 6-[8-(1,3-benzothiazol-2-ylcarbamoyl)-3,4-dihydroisoquinolin-2(1H)-yl]-3-{2-methyl-3-[tricyclo[3.3.1.1^3,7]dec-1-ylmethoxy]phenyl}pyridine-2-carboxylic acid]	343
O=C(Nc1nc2ccccc2s1)c1cccc2c1CN(c1ccc(-c3cccc(OCC45CC6CC(CC(C6)C4)C5)c3)c(C(=O)O)n1)CC2 [Example 22, 6-[8-(1,3-benzothiazol-2-ylcarbamoyl)-3,4-dihydroisoquinolin-2(1H)-yl]-3-{3-[tricyclo[3.3.1.1^3,7]dec-1-ylmethoxy]phenyl}pyridine-2-carboxylic acid]	> 1000
O=C(Nc1nc2ccccc2s1)c1cccc2c1CN(c1ccc(-c3ccnc(OCC45CC6CC(CC(C6)C4)C5)c3)c(C(=O)O)n1)CC2 [Example 25, 6-[8-(1,3-benzothiazol-2-ylcarbamoyl)-3,4-dihydroisoquinolin-2(1H)-yl]-2'-(tricyclo[3.3.1.1^3,7]dec-1-ylmethoxy)-3,4'-bipyridine-2-carboxylic acid]	> 1000
O=C(Nc1nc2ccccc2s1)c1cccc2c1CN(c1ccc(-c3cnn(CC45CC6CC(C4)CC(OCCN4CCOCC4)(C6)C5)c3)c(C(=O)O)n1)CC2 [Example 26, 6-[8-(1,3-benzothiazol-2-ylcarbamoyl)-3,4-dihydroisoquinolin-2(1H)-yl]-3-[1-({3-[2-(morpholin-4-yl)ethoxy]tricyclo[3.3.1.1^3,7]dec-1-yl}methyl)-1H-pyrazol-4-yl]pyridine-2-carboxylic acid]	243
Cc1c(-c2ccc(N3CCc4cccc(C(=O)Nc5nc6ccccc6s5)c4C3)nc2C(=O)O)ccnc1OCC12CC3CC(CC(C3)C1)C2 [Example 27, 6-[8-(1,3-benzothiazol-2-ylcarbamoyl)-3,4-dihydroisoquinolin-2(1H)-yl]-3'-methyl-2'-(tricyclo[3.3.1.1^3,7]dec-1-ylmethoxy)-3,4'-bipyridine-2-carboxylic acid]	214
N#Cc1c(-c2ccc(N3CCc4cccc(C(=O)Nc5nc6ccccc6s5)c4C3)nc2C(=O)O)cnn1CC12CC3CC(CC(C3)C1)C2 [Example 29, 6-[8-(1,3-benzothiazol-2-ylcarbamoyl)-3,4-dihydroisoquinolin-2(1H)-yl]-3-{5-cyano-1-[tricyclo[3.3.1.1^3,7]dec-1-ylmethyl]-1H-pyrazol-4-yl}pyridine-2-carboxylic acid]	3
Cc1c(-c2ccc(N3CCc4cccc(C(=O)Nc5nc6ncccc6s5)c4C3)nc2C(=O)O)cnn1CC12CC3CC(CC(C3)C1)C2 [Example 30, 3-[5-methyl-1-(tricyclo[3.3.1.1^3,7]dec-1-ylmethyl)-1H-pyrazol-4-yl]-6-[8-([1,3]thiazolo[4,5-b]pyridin-2-ylcarbamoyl)-3,4-dihydroisoquinolin-2(1H)-yl]pyridine-2-carboxylic acid]	49
Cc1c(-c2ccc(N3CCc4cccc(C(=O)Nc5nc6cnccc6s5)c4C3)nc2C(=O)O)cnn1CC12CC3CC(CC(C3)C1)C2 [Example 31, 3-[5-methyl-1-(tricyclo[3.3.1.1^3,7]dec-1-ylmethyl)-1H-pyrazol-4-yl]-6-[8-([1,3]thiazolo[4,5-c]pyridin-2-ylcarbamoyl)-3,4-dihydroisoquinolin-2(1H)-yl]pyridine-2-carboxylic acid]	5
Cc1c(-c2ccc(N3CCc4cccc(C(=O)Nc5nc6ccccc6s5)c4C3)nc2C(=O)O)cnn1CC12CC3CC(C)(CC(C)(C3)C1)C2 [Example 32, 6-[8-(1,3-benzothiazol-2-ylcarbamoyl)-3,4-dihydroisoquinolin-2(1H)-yl]-3-(1-{[3,5-dimethyltricyclo[3.3.1.1^3,7]dec-1-yl]methyl}-5-methyl-1H-pyrazol-4-yl)pyridine-2-carboxylic acid]	1
